“Also recorded” adds a separate entry of the source.
Key:
type 3 rhinovirus = settings: cited from earlier work
viruses = settings: test viruses; cited from earlier work
[1] = test system: P388 lymphocytic leukemia; assay: P388 lymphocytic leukemia in vivo, median survival, 30-day test (Examples 7 and 8); design: species or system CD2 F1 female mice
Procedure: For examples 7 and 8, CD2 F1 female mice were used and challenged with P388 lymphocytic leukemia tumors. […] The test period was for thirty days in both Examples 7 and 8.
For Examples 7 and 8, as well as Examples 9 and 10 below, any animal of the drug treated group which survived beyond the end of the testing period was then evaluated and placed in one of three groups. The first group was designated as cured, meaning the animal was successfully cured of the tumor. The second group designation was no-takes, meaning survival of the animal was considered to be due to failure of tumor implant. The remaining group was designated as tumor survivors meaning the animals lived beyond the test cut-off date but could not be classified as either cured or no-takes.
For both Examples 7 and 8, thirty animals were used as the control group and six animals each were used at each dose level indicated in tables 3 and 4 below in the drug treated groups. In both Examples 7 and 8, for both the control group and the drug treated groups, tumors were induced by IP inoculation of tumor seed cells on day zero followed by initiation of drug treatment on day one. For both Examples 7a and 8, saline with tween/80 was used as the drug vehicle. For Examples 7b and 7c, water was used as the drug vehicle.
In both the control group and the drug treated group in Examples 7 and 8, the test animals were inoculated on day zero IP with 10^6 seed cells of P388 lymphocytic leukemia. In both Examples 7 and 8, treatment of the drug group was started on day one and the drug was given IP once daily for nine days. Day six was utilized as the cut-off data for death attributable to toxicity of the drug. […] Efficacy of treatment was determined by comparing median survival time of the drug treated animals compared to median survival time of the control animals, and is expressed as percentage increase of treated animals/control animals (T/C) as per Example 5.
In this example drug treated animals were injected IP with the dose level noted in Table 3 below. Six animals were treated at each dose level. No control animals survived beyond day 18 with a median death date of day 12.6.
This examples was performed as per Example 7a at dose levels as noted in table 3b below. A survivor at both the 700 and 800 mg/Kg level was judged as cured. No controls survived beyond day 12 and the mean death day of the control group was day 11.
This example was run as per Example 7a above at dose levels noted in Table 3c below. All controls were dead by day 14 with a mean death day of day 11.9. At the 500 mg/Kg level, one animal was judged as a cure.
Compound 2, 2-(2,3,5-tri-O-acetyl-β-D-ribofuranosyl)thiazole-4-carboxamide was tested as per Example 7a above at dose levels noted in Table 4 below. No controls survived beyond day 18 with an average death date of day 12.6.

L-1210 lymphoid leukemia = L-1210 lymphoid leukemia in vivo, mean survival, 30-day test (Example 9); design: species or system CD2 F1 male mice
Excerpt: For Example 9a and 9b, CD2 F1 male mice were used and challenged with L-1210 lymphoid leukemia. […] The test period was for thirty days. Test results are expressed as T/C as per Example 5.
In Example 9a, 24 control animals were used and six test animals at each drug dose level as is indicated below in table 9a. For both the control group and the drug test group, tumors were induced by IP inoculation of tumor seed cells on day zero followed by initiation of drug treatment on day one. For example 9a, water was used as the drug vehicle and for Examples 9b saline was used as the drug vehicle.
In both the control groups and the drug treated groups in Examples 9a and 9b, the test animals were inoculated on day zero IP with 10^6 seed cells of L-1210 lymphoid leukemia. For Example 9a, drug treatment was started on day one and compound 1 given once daily for nine days. Day five was utilized as the cutoff date for death attributable to toxicity of the drug. […] Efficacy of treatment was determined by comparing mean survival time of drug treated animals with mean survival time of the control animals and is expressed as percentage increase of treated animals/control animals (T/C) as per Example 5.
In this example, the drug treated animals were injected IP with dose levels noted in table 5a below. Six animals were treated at each dose level. No control animals survived beyond day ten with a mean death date of day 9.7.
In this example, drug treated animals were injected IP with the dose level noted in table 5b below. Ten animals were treated at each dose level. No control animals survived beyond day ten with a mean death date of day 9.0.

SMILES: NC(=O)c1csc([C@@H]2O[C@H](CO)[C@@H](O)[C@H]2O)n1 [Compound 1, 2-β-D-Ribofuranosylthiazole-4-Carboxamide]
- in vitro antiviral activity (type 3 rhinovirus): only moderate
- spectrum of in vitro antiviral activity, preliminary (viruses): marginal in vitro activity
- Percent Treated Animals/Control Animals ([1]; Ex. 7a/8, saline with tween/80, 12.5 mg/Kg IP once daily x9): 110%
- Treated Group Survival Time (median) ([1]; Ex. 7a/8, saline with tween/80, 12.5 mg/Kg IP once daily x9, control 12.6): 13.9 days
- Percent Treated Animals/Control Animals ([1]; Ex. 7a/8, saline with tween/80, 25 mg/Kg IP once daily x9): 113%
- Treated Group Survival Time (median) ([1]; Ex. 7a/8, saline with tween/80, 25 mg/Kg IP once daily x9, control 12.6): 14.3 days
- Percent Treated Animals/Control Animals ([1]; Ex. 7a/8, saline with tween/80, 50 mg/Kg IP once daily x9): 121%
- Treated Group Survival Time (median) ([1]; Ex. 7a/8, saline with tween/80, 50 mg/Kg IP once daily x9, control 12.6): 15.3 days
- Percent Treated Animals/Control Animals ([1]; Ex. 7a/8, saline with tween/80, 100 mg/Kg IP once daily x9): 145%
- Treated Group Survival Time (median) ([1]; Ex. 7a/8, saline with tween/80, 100 mg/Kg IP once daily x9, control 12.6): 18.3 days
- Percent Treated Animals/Control Animals ([1]; Ex. 7a/8, saline with tween/80, 200 mg/Kg IP once daily x9): 150%
- Treated Group Survival Time (median) ([1]; Ex. 7a/8, saline with tween/80, 200 mg/Kg IP once daily x9, control 12.6): 19.0 days
- Percent Treated Animals/Control Animals ([1]; Ex. 7a/8, saline with tween/80, 400 mg/Kg IP once daily x9): 161%
- Treated Group Survival Time (median) ([1]; Ex. 7a/8, saline with tween/80, 400 mg/Kg IP once daily x9, control 12.6): 20.3 days
- surviving animals judged as no-take ([1]; Ex. 7a/8, 50 mg/Kg, thirty days): one drug treated animal survived and was judged as a no-take
- Percent Treated Animals/Control Animals ([1]; Ex. 7b, water, 300 mg/Kg IP once daily x9): 198%
- Treated Group Survival Time (median) ([1]; Ex. 7b, water, 300 mg/Kg IP once daily x9, control 11.0): 21.8 days
- Percent Treated Animals/Control Animals ([1]; Ex. 7b, water, 400 mg/Kg IP once daily x9): 224%
- Treated Group Survival Time (median) ([1]; Ex. 7b, water, 400 mg/Kg IP once daily x9, control 11.0): 24.7 days
- Percent Treated Animals/Control Animals ([1]; Ex. 7b, water, 500 mg/Kg IP once daily x9): 190%
- Treated Group Survival Time (median) ([1]; Ex. 7b, water, 500 mg/Kg IP once daily x9, control 11.0): 21.8 days
- Percent Treated Animals/Control Animals ([1]; Ex. 7b, water, 600 mg/Kg IP once daily x9): 234%
- Treated Group Survival Time (median) ([1]; Ex. 7b, water, 600 mg/Kg IP once daily x9, control 11.0): 25.8 days
- Percent Treated Animals/Control Animals ([1]; Ex. 7b, water, 700 mg/Kg IP once daily x9): 245%
- Treated Group Survival Time (median) ([1]; Ex. 7b, water, 700 mg/Kg IP once daily x9, control 11.0): 27.0 days
- Percent Treated Animals/Control Animals ([1]; Ex. 7b, water, 800 mg/Kg IP once daily x9): 245%
- Treated Group Survival Time (median) ([1]; Ex. 7b, water, 800 mg/Kg IP once daily x9, control 11.0): 27.0 days
- survivors judged as cured ([1]; Ex. 7b, 700 mg/Kg, thirty days): A survivor
- survivors judged as cured ([1]; Ex. 7b, 800 mg/Kg, thirty days): A survivor
- Percent Treated Animals/Control Animals ([1]; Ex. 7c, water, 300 mg/Kg IP once daily x9): 193%
- Treated Group Survival Time (median) ([1]; Ex. 7c, water, 300 mg/Kg IP once daily x9, control 11.9): 23.0 days
- Percent Treated Animals/Control Animals ([1]; Ex. 7c, water, 400 mg/Kg IP once daily x9): 201%
- Treated Group Survival Time (median) ([1]; Ex. 7c, water, 400 mg/Kg IP once daily x9, control 11.9): 24.0 days
- Percent Treated Animals/Control Animals ([1]; Ex. 7c, water, 500 mg/Kg IP once daily x9): 210%
- Treated Group Survival Time (median) ([1]; Ex. 7c, water, 500 mg/Kg IP once daily x9, control 11.9): 25.0 days
- Percent Treated Animals/Control Animals ([1]; Ex. 7c, water, 600 mg/Kg IP once daily x9): 237%
- Treated Group Survival Time (median) ([1]; Ex. 7c, water, 600 mg/Kg IP once daily x9, control 11.9): 28.3 days
- Percent Treated Animals/Control Animals ([1]; Ex. 7c, water, 700 mg/Kg IP once daily x9): 86%
- Treated Group Survival Time (median) ([1]; Ex. 7c, water, 700 mg/Kg IP once daily x9, control 11.9): 10. day
- Percent Treated Animals/Control Animals ([1]; Ex. 7c, water, 800 mg/Kg IP once daily x9): 99%
- Treated Group Survival Time (median) ([1]; Ex. 7c, water, 800 mg/Kg IP once daily x9, control 11.9): 11.8 days
- animals judged as a cure ([1]; Ex. 7c, 500 mg/Kg, thirty days): one animal
- animal mortality attributed to drug toxicity ([1]; Example 7b, day six cut-off): only one instance
- activity against P388 lymphocytic leukemia ([1]; Examples 7 and 8, multiple dose): active antitumor agents; also recorded: active against P388 lymphocytic leukemia
- DN 2 (Decision Network) criteria of the National Cancer Institute ([1]; P388): successfully passed
- Percent Treated Animals/Control Animals (L-1210 lymphoid leukemia; Ex. 9a, water, 25 mg/Kg IP once daily x9): 131%
- Treated Group Survival Time (mean) (L-1210 lymphoid leukemia; Ex. 9a, water, 25 mg/Kg IP once daily x9, control 9.7): 12.8 days
- Percent Treated Animals/Control Animals (L-1210 lymphoid leukemia; Ex. 9a, water, 50 mg/Kg IP once daily x9): 136%
- Treated Group Survival Time (mean) (L-1210 lymphoid leukemia; Ex. 9a, water, 50 mg/Kg IP once daily x9, control 9.7): 13.2 days
- Percent Treated Animals/Control Animals (L-1210 lymphoid leukemia; Ex. 9a, water, 100 mg/Kg IP once daily x9): 144%
- Treated Group Survival Time (mean) (L-1210 lymphoid leukemia; Ex. 9a, water, 100 mg/Kg IP once daily x9, control 9.7): 14.0 days
- Percent Treated Animals/Control Animals (L-1210 lymphoid leukemia; Ex. 9a, water, 200 mg/Kg IP once daily x9): 157%
- Treated Group Survival Time (mean) (L-1210 lymphoid leukemia; Ex. 9a, water, 200 mg/Kg IP once daily x9, control 9.7): 15.3 days
- Percent Treated Animals/Control Animals (L-1210 lymphoid leukemia; Ex. 9a, water, 400 mg/Kg IP once daily x9): 192%
- Treated Group Survival Time (mean) (L-1210 lymphoid leukemia; Ex. 9a, water, 400 mg/Kg IP once daily x9, control 9.7): 18.7 days
- Percent Treated Animals/Control Animals (L-1210 lymphoid leukemia; Ex. 9b, saline, 100 mg/Kg IP): 183%
- Treated Group Survival Time (mean) (L-1210 lymphoid leukemia; Ex. 9b, saline, 100 mg/Kg IP, control 9.0): 16.5 days
- Percent Treated Animals/Control Animals (L-1210 lymphoid leukemia; Ex. 9b, saline, 200 mg/Kg IP): 182%
- Treated Group Survival Time (mean) (L-1210 lymphoid leukemia; Ex. 9b, saline, 200 mg/Kg IP, control 9.0): 16.4 days
- Percent Treated Animals/Control Animals (L-1210 lymphoid leukemia; Ex. 9b, saline, 400 mg/Kg IP): 224%
- Treated Group Survival Time (mean) (L-1210 lymphoid leukemia; Ex. 9b, saline, 400 mg/Kg IP, control 9.0): 20.2 days
- Percent Treated Animals/Control Animals (L-1210 lymphoid leukemia; Ex. 9b, saline, 600 mg/Kg IP): 230%
- Treated Group Survival Time (mean) (L-1210 lymphoid leukemia; Ex. 9b, saline, 600 mg/Kg IP, control 9.0): 20.7 days
- Percent Treated Animals/Control Animals (L-1210 lymphoid leukemia; Ex. 9b, saline, 800 mg/Kg IP): 171%
- Treated Group Survival Time (mean) (L-1210 lymphoid leukemia; Ex. 9b, saline, 800 mg/Kg IP, control 9.0): 15.4 days
- activity against L-1210 lymphoid leukemia (L-1210 lymphoid leukemia; Example 9): active against L-1210 lymphoid leukemia
- mortality attributed to drug toxicity (L-1210 lymphoid leukemia; Example 9b, day five cut-off): only one instance
- DN 2 criteria of the National Cancer Institute (L-1210 lymphoid leukemia; L-1210): successfully passed

Reference: patent publication US4680285A, “Treatment of malignant tumors with 2-(β-D-ribofuranosylthiazole-4-carboxamide related compounds” (priority 1985, dated 1987)
